# Assay results reported in PubChem BioAssay AID2060620 (Molecular Pharmacology Branch, DTP, NCI, 2025).
# Test system: 328373-195-R-J1-PDC complex spheroids, viability % test/control
# Assay: Anticancer human tumor 328373-195-R-J1-PDC patient-derived head and neck squamous carcinoma cell line growth inhibition [CLK]
# Conditions: for IC50: curve of first compound; for viability, T/C: stronger effect = lower value
# Description: A high-throughput screen of multi-cell type tumor spheroids was designed to identify active combinations of […] and targeted small molecules. Complex spheroids include a stromal component modeled by human endothelial cells (HUVEC) and fibroblasts modeled by human mesenchymal stem cells (MSCs). The concentration ranges selected for each drug and investigational agent were based upon clinically achievable concentrations if the clinical Cmax of the agent was known.
# Compounds. The drugs and investigational agents: cirtuvivint (SM08502; NSC835563), CC-671 (NSC850746), vemurafenib (NSC761431), tapotoclax (NSC804041), sotorasib (NSC818433), adagrasib (NSC831453), MRTX-1133 (NSC836407), BAY2416964 (NSC825713), copanlisib (NSC816437), inavolisib (NSC800729), abemaciclib (NSC768073), osimertinib (NSC779217), entinostat (NSC756642), eltanexor (KPT-8602, NSC794443), venetoclax (NSC766270), ceralasertib (NSC777638), bortezomib (NSC756655), olaparib (NSC753686), talazoparib (NSC767125), alisertib (NSC759677), peposertib (NSC802822), gemcitabine (NSC613327), 5-fluorouracil (NSC19893), SN-38 (NSC673596), oxaliplatin (NSC266046), paclitaxel (NSC125973), and doxorubicin (NSC123127), were obtained from the National Cancer Institute (NCI) Developmental Therapeutics Program Chemical Repository. The FDA-approved anticancer drug set is available from the Developmental Therapeutics Program at https://dtp.cancer.gov/organization/dscb/obtaining/available plates.htm. […] The stock solutions were prepared in dimethyl sulfoxide (DMSO, Sigma-Aldrich, St. Louis, MO, cat. D2650), except for the platinum complexes which were prepared in saline (Quality Biological, Gaithersburg, MD, cat. 114-055-101), at 800-fold the tested concentration and stored at -70 degrees C prior to their use. All drugs and investigational agents were tested over a range starting from a high concentration at or near the clinical Cmax and decreasing in half-log increments. If the clinical Cmax for an agent had not been determined, the highest concentration tested was 10 microM.
# Cell Culture. All cells were maintained in an incubator at 37 degrees C and 5% CO2 with 95% humidity. The PDC lines were cultured according to standard operating procedures established by the NCI PDMR. Briefly, all PDCs were thawed and cultured in Matrigel-coated flasks prepared with a working solution of 1X Ham's F-12 nutrient mix, without supplementation (Invitrogen, Waltham, MA, cat. 11765054), 100 U/mL penicillin-streptomycin (Invitrogen, cat. 15140122), and 2.5% Matrigel (Corning Inc., Corning, NY, cat. 354248) for the first three passages. The 947758-054-R-J2-PDC line was cultured in 6B/Colon 1A media, which includes advanced DMEM/F-12 (Thermo Fisher Scientific, cat. 12634028), 10 mM HEPES (Thermo Fisher Scientific, cat. 15630080), 1X GlutaMAX supplement (Thermo Fisher Scientific, cat. 35050061), 0.1 mg/mL primocin (InvivoGen, cat. ant-pm-2), 10% defined fetal bovine serum, heat inactivated (HyClone Laboratories Inc., cat. SH30070.03HI), 1.25 mM N-Acetyl-L-cysteine (Sigma-Aldrich, cat. A9165), 10 mM nicotinamide (Sigma-Aldrich, cat. N0636), 1X B-27 supplement (Thermo Fisher Scientific, cat. 17504044), 1X N-2 supplement (Thermo Fisher Scientific, cat. 17502048), and 10 microM Y-27632 dihydrochloride (Tocris Bioscience, cat. 1254). The 876862-298-R-J1-PDC was cultured in 6E media, which includes all 6B/Colon 1A media components plus 50% L-WRN conditioned media (ATCC, cat. CRL-3276), 50 ng/mL recombinant human EGF recombinant protein (hEGF; Thermo Fisher Scientific, cat. PHG0311), 10 ng/mL recombinant human fibroblast growth factor 10 (hGFG-10; PeproTech, cat. 100-26), 1 ng/mL recombinant human fibroblast growth factor 2 (hFGF-2; PeproTech, cat. 100-18B), and 1 µM prostaglandin E2 (PGE2; Tocris, cat. 2296). The 227483-062-R1-J1-PDC line was cultured in Panc media, containing all 6E components except hFGF-2, with the addition of 500 nM SB-431542 (Selleckchem, cat. S1067) and 10 nM gastrin (Tocris, cat. 3006). […]
# 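Also: spheroids exposed to the agents for 7 days.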
compound,measurement,setting,value
C#Cc1c(F)ccc2cc(O)cc(-c3ncc4c(N5CC6CCC(C5)N6)nc(OCC56CCCN5CC(F)C6)nc4c3F)c12 (configuration not stated) + CN1CCN(c2cc(C(=O)Nc3cc4cc(-c5cnn(C)c5)ccc4cn3)ccn2)CC1,IC50,second compound 0.0316 µM,> 10000 nM
same,IC50,second compound 0.1 µM,> 10000 nM
same,IC50,second compound 0.316 µM,< 31.6 nM
same,IC50,second compound 1 µM,< 31.6 nM
same,IC50,second compound 3.16 µM,< 31.6 nM
same,IC50,second compound 10 µM,< 31.6 nM
same,"viability, T/C","second compound 0.0316 µM, first compound 0.0316 µM",92.8%
same,"viability, T/C","second compound 0.0316 µM, first compound 0.1 µM",88%
same,"viability, T/C","second compound 0.0316 µM, first compound 0.316 µM",109%
same,"viability, T/C","second compound 0.0316 µM, first compound 1 µM",93.9%
same,"viability, T/C","second compound 0.0316 µM, first compound 3.16 µM",103%
same,"viability, T/C","second compound 0.0316 µM, first compound 10 µM",81.5%
same,"viability, T/C","second compound 0.1 µM, first compound 0.0316 µM",80.8%
same,"viability, T/C","second compound 0.1 µM, first compound 0.1 µM",85.2%
same,"viability, T/C","second compound 0.1 µM, first compound 0.316 µM",80.1%
same,"viability, T/C","second compound 0.1 µM, first compound 1 µM",83.2%
same,"viability, T/C","second compound 0.1 µM, first compound 3.16 µM",88.8%
same,"viability, T/C","second compound 0.1 µM, first compound 10 µM",62.4%
same,"viability, T/C","second compound 0.316 µM, first compound 0.0316 µM",34%
same,"viability, T/C","second compound 0.316 µM, first compound 0.1 µM",34.8%
same,"viability, T/C","second compound 0.316 µM, first compound 0.316 µM",30.9%
same,"viability, T/C","second compound 0.316 µM, first compound 1 µM",39.2%
same,"viability, T/C","second compound 0.316 µM, first compound 3.16 µM",32.8%
same,"viability, T/C","second compound 0.316 µM, first compound 10 µM",16.9%
same,"viability, T/C","second compound 1 µM, first compound 0.0316 µM",0.24%
same,"viability, T/C","second compound 1 µM, first compound 0.1 µM",0.32%
same,"viability, T/C","second compound 1 µM, first compound 0.316 µM",1.75%
same,"viability, T/C","second compound 1 µM, first compound 1 µM",0.29%
same,"viability, T/C","second compound 1 µM, first compound 3.16 µM",0.2%
same,"viability, T/C","second compound 1 µM, first compound 10 µM",2.89%
same,"viability, T/C","second compound 3.16 µM, first compound 0.0316 µM",0.63%
same,"viability, T/C","second compound 3.16 µM, first compound 0.1 µM",2.27%
same,"viability, T/C","second compound 3.16 µM, first compound 0.316 µM",3.6%
same,"viability, T/C","second compound 3.16 µM, first compound 1 µM",0.18%
same,"viability, T/C","second compound 3.16 µM, first compound 3.16 µM",0.13%
same,"viability, T/C","second compound 3.16 µM, first compound 10 µM",0.34%
same,"viability, T/C","second compound 10 µM, first compound 0.0316 µM",1.89%
same,"viability, T/C","second compound 10 µM, first compound 0.1 µM",0.19%
same,"viability, T/C","second compound 10 µM, first compound 0.316 µM",0.24%
same,"viability, T/C","second compound 10 µM, first compound 1 µM",0.19%
same,"viability, T/C","second compound 10 µM, first compound 3.16 µM",0.19%
same,"viability, T/C","second compound 10 µM, first compound 10 µM",1.27%
